Experimental data from patent US3952101A, “α-Amino methyl-5-hydroxy-2-pyridinemethanols” (SmithKline Corporation, priority 1975, dated 1976).
In brackets after ≈: the same amount, converted by molar mass.

How the values were obtained:
[1] = tested on: guinea pig tracheal chain preparations; assay: effect on spontaneous tone of guinea pig tracheal chain preparations (β-stimulant direct relaxant effect on airway smooth muscle); format: cell-based
Source text: (§1) Two in vitro test systems used for determining selective β-stimulant activity are: (1) effect on spontaneous tone of guinea pig tracheal chain preparations as a measure of β-stimulant (direct relaxant) effect on airway smooth muscle, and (2) effect on rate of spontaneously beating right atria of the guinea pig as a measure of β-stimulant effect on cardiac muscle.

guinea pig right atria = assay: effect on rate of spontaneously beating right atria of the guinea pig (β-stimulant effect on cardiac muscle); format: cell-based; conditions: Cavia porcellus; in vitro, at a dose of 30.0 mcg/ml; read-out: increase in the rate of contraction of guinea pig right atria
Source text: as §1

Row | EC50 ([1]; Cavia porcellus, in vitro, spontaneous tone, read-out: ED50, relaxes the spontaneous tone of guinea pig tracheal ring preparation) [ng/mL] | SMILES | absolute separation ratio ([1]; tracheal versus right atria activity, similar in vitro preparations) | activation at 30 µg/mL (guinea pig right atria) [%]
1 |  | CC(C)NCC(O)c1ccc(O)c(O)c1 (stereo not drawn) [d,1-isoproterenol, reference compound] | 0.5 | 
2 | 8.8 (≈ 0.0291 µM) | CC(C)(C)NCC(O)c1ccc(O)c(CS(C)(=O)=O)n1 (stereo not drawn) [α-(t-butylaminomethyl)-5-hydroxy-6-methanesulfonylmethyl-2-pyridinemethanol] |  | 13
